Holding throughout (type): biochemical
One test addresses T1, SMYD3/KMT3E (Homo sapiens, UniProt Q9H7B4).
T1 construct: the human recombinant SMYD3 (residues 2–428, C-terminus); C-terminal His-tag; His (C); purchased Reaction Biology Corporation
T1 sequence (Q9H7B4 2-428): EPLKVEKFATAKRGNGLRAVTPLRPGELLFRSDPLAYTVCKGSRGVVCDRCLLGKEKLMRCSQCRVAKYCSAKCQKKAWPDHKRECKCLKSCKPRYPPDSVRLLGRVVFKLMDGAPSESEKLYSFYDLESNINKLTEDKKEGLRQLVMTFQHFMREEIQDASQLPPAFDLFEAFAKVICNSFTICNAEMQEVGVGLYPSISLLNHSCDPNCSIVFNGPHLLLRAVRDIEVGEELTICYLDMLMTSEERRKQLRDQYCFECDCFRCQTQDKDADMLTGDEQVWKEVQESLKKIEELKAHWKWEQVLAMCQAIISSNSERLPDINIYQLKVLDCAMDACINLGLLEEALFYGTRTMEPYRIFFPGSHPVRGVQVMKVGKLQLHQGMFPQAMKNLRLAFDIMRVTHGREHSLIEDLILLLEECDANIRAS
Nature of the test: HotSpot KMT activity assay, SMYD3. An excerpt: (§1) ; MW = 35.4 kDa; Genbank Accession # NM_018489), or the human recombinant EZH2-containing five-member polycomb repressive complex 2 (including EZH2 residues 2–746, AEBP2 2–517, EED 2–441, RbAp48 2–425, SUZ12 2–739; all full-length; with N-terminal Flag-tag on EED and N-terminal His-tag on all others; MW = 333.8 kDa; Genbank Accession # NM_001203247, NM_001114176, NM_003797, NM_005610, NM_015355), or the human recombinant G9a (residues 913–1193, C-terminus; with an N-terminal His-tag; MW = 34.6 kDa; Genbank Accession # NM_006709.3), or the human recombinant MLL1 complex (including MLL1 residues 3745–3969, C-terminus, WDR5 22–334, C-terminus, RbBP5 1–538, C-terminus, ASH2L 2–534, C-terminus, DPY-30 1–99, C-terminus; N-terminal His-tag on all subunits; MW = 212.0 kDa; Genbank Accession # NM_005933, NM_017588, NM_005057, NM_001105214, NM_0325742), or the human recombinant SET7/9 (residues 2–366, C-terminus; with a N-terminal GST-tag and a C-terminal His-tag; MW = 68.5 kDa; Genbank Accession # NM_030648), or the human recombinant SMYD3 (residues 2–428, C-terminus; C-terminal His-tag; MW = 50.1 kDa; Genbank Accession # NM_001167740), or the human recombinant SUV39H2 (residues 46–410, C-terminus; N-terminal fusion protein with a C-terminal His-tag; MW = 98.8 kDa; GenBank Accession No. NM_001193424), or the human recombinant DOT1L (residues 1–416; N-terminal GST-tag; MW = 80.0 kDa; Genbank Accession # NM_032482) was added to a solution of the proper substrate (oligo nucleosomes for ASH1L, MLL1 complex, and DOT1L, final concentration 0.05 mg/mL; core histone for EZH2 complex and SET7/9, final concentration 0.05 mg/mL; histone H3 for SUV39H2, final concentration 5 μM; histone H3 1–21 for G9a, final concentration 2.5 μM) in freshly prepared reaction buffer (50 mM Tris-HCl (pH 8.5), 5 mM MgCl2, 50 mM NaCl, 1 mM DTT, 1 mM PMSF, 1% DMSO) and gently mixed. […] After incubation for 60 min at 30 °C, the reaction mixture was delivered to filter paper for detection (as assessed by scintillation). […] Values obtained for each compound are mean ± SD determined for two separate experiments.

Test [1] has as its target T2, MLL1/KMT2A (5 component complex) (Homo sapiens, UniProt Q03164).
T2 construct: MLL1 residues 3745–3969, C-terminus; His (N); purchased Reaction Biology Corporation
Nature of the test: HotSpot KMT activity assay, MLL1.
From the text: as §1

The next test deals with T3, SET7/9/KMT7 (Homo sapiens, UniProt Q8WTS6).
T3 construct: the human recombinant SET7/9 (residues 2–366, C-terminus); GST (N); His (C); purchased Reaction Biology Corporation
T3 sequence (Q8WTS6 2-366): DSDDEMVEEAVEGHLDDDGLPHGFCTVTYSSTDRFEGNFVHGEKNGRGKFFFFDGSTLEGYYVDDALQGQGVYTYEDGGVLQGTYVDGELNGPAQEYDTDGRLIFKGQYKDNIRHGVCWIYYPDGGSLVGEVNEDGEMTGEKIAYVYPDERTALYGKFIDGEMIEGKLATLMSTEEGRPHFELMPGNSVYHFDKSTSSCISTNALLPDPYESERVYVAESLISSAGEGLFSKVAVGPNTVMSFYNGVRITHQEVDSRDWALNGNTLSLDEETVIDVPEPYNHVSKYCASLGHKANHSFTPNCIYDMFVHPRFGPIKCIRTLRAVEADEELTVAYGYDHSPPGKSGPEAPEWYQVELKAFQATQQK
Nature of the test: HotSpot KMT activity assay, SET7/9. As to conditions: 10-dose IC50 mode; read-out: ref. cmpd. IC50, SET7/9.
From the text: as §1

For a further test, the target named is T4, SUV39H2/KMT1B (Homo sapiens, UniProt Q9H5I1).
T4 construct: the human recombinant SUV39H2 (residues 46–410, C-terminus); His (C); purchased Reaction Biology Corporation
T4 sequence (Q9H5I1 46-410): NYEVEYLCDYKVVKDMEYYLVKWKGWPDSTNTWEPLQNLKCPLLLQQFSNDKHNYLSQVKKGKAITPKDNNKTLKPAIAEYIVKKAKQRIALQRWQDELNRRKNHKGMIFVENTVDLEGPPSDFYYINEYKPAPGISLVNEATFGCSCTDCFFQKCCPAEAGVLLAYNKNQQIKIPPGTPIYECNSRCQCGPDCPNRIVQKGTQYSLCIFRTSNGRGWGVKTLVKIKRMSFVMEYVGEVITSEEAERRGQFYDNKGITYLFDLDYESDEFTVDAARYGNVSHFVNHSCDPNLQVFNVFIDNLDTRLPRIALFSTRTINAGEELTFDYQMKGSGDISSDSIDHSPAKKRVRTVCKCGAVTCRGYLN
Nature of the test: HotSpot KMT activity assay, SUV39H2. As to conditions: 10-dose IC50 mode; read-out: ref. cmpd. IC50, SUV39H2.
From the text: as §1

Take `Nc1ncnc2c1ncn2[C@@H]1O[C@H](CSCC[C@H](N)C(=O)O)[C@@H](O)[C@H]1O` [SAH, S-5′-adenosyl-L-homocysteine, reference compound]: the IC50 stood at 15.9 µM at SMYD3/KMT3E, 0.3 µM in test [1], 70.4 µM at SET7/9/KMT7 and 37.3 µM at SUV39H2/KMT1B.

The values are drawn from paper PMC10578352, “Identification of a Protein Arginine Methyltransferase 7 (PRMT7)/Protein Arginine Methyltransferase 9 (PRMT9) Inhibitor” (Journal of Medicinal Chemistry, 2023).
